Measurements reported in patent publication US7354921B2, “Pyrazolotriazines as kinase inhibitors” (Schering Corporation, priority 2004, dated 2008).

molecular target: T1, CDK2 (Homo sapiens, UniProt P24941); test: CDK2 in vitro kinase assay (cyclin A or E-dependent), 33P-ATP SPA; assay type: biochemical; conditions: recombinant cyclin-CDK2 complex (cyclin A or E, not specified); biotinylated Histone H1 peptide substrate; 1 hour at room temperature; read-out: CDK 2 IC50
T1 construct: The expressed protein is approximately 34 kDa in size; made in house; host or cells: SF9 insect cells (recombinant baculovirus, pFASTBAC)

First: CCc1cnn2c(Nc3ccc(S(C)(=O)=O)cc3)nc(N3CCCC[C@H]3CCO)nc12
Second: CCc1cnn2c(NCc3ccc(=O)n(C)c3)nc(N3CCCC[C@H]3CCO)nc12
The IC50 of the first is 220-fold higher: 106 nM for the first, 0.48 nM for the second.

CCc1cnn2c(NCc3ccnnc3)nc(N3CCCC[C@H]3CCO)nc12 and CCc1cnn2c(NCc3cccnc3)nc(N3CCCC[C@H]3CCO)nc12 are within 1.5-fold of each other in IC50: 1.2 nM for the first, 0.88 nM for the second.

CCc1cnn2c(NCc3ccn(CC)c(=O)c3)nc(N3CCCC[C@H]3CCO)nc12 and CCc1cnn2c(NCc3cncnc3)nc(N3CCCC[C@H]3CCO)nc12 are within 1.5-fold of each other in IC50: 0.52 nM for the first, 0.56 nM for the second.

Cn1cc(CNc2nc(N3CCCC[C@H]3CCO)nc3c(C4CC4)cnn23)ccc1=O showed an IC50 of 3.1 nM.
